Assay results published in patent US20220202739A1, “ENDOCANNABINOID MIMETIC AND ANTI-INFLAMMATORY COMPOUND CONTAINING COMPOSITIONS, METHODS OF PREPARATION AND USES THEREOF” (priority 2019, published 2022).

Legend:
Assay type in all cases: cell-based
[1] = system: TRPM8; experiment: Gene expression custom microarray, human skin fibroblasts (Example 1): TRPM8; details: 10 uM, 24 hr
Description: (§1) Cell cultures: A human skin fibroblast cell culture (or cultures) was obtained through the Coriell Cell Repository from the National Institute on Aging Cell Repository (Camden, N.J.), or Promocell GmbH (Heidelberg, Germany). The initial culture was selected from the following cell lines: AG13066, AG11557, AG11796 or GM03651E. The cell lines were derived from donors as follows:
(§2) Experimental phase: When the appropriate quantity of cells had been grown, they were detached as described above, but at the final step were seeded into each well of one or more 6 well dishes. Each well received 2 ml of the cell suspension so they were seeded equally. The dishes were returned to the incubator until 85-95% confluency was reached.
(§3) It is at this stage that all wells were rinsed in PBS after aspirating the growth media. The compound(s) to be tested were previously mixed into a suitable solvent (e.g., DMSO or ethanol) that can be diluted to the desired concentration of test compound (10 μl) in the culture wells without exceeding maximum solvent concentrations and adversely effecting cell viability, and mixed with basal media. NOTE: Standard maximum levels of solvent are 0.1% for DMSO and 0.5% for ETOH. The concentration of each test compound is found in Tables 1 & 2.
(§4) Every 2 wells on the 6 well plate served as a biological replicate for the purposes of RNA isolation and genetic expression evaluations making each 6 well dish an n=3 for the test compound(s) contained in the media. Negative control plates (no test compound(s) and only basal media) were also generated. The plates were returned to the incubator for 24 hrs.
(§5) At the end of the 24 hr time period, the plates were removed from the incubator, the test media aspirated, and the cells rinsed with PBS. RNA isolation is performed using the BioRad Aurum Total RNA Mini Kit (Hercules, Calif.) per manufacturer's protocol; which is described, in brief, below: • Add 350 μl of lysis buffer to each well. Pipet multiple times to ensure thorough lysis. Add lysed cells to the collection tube. • Add 350 μl of 70% ETOH to the collection tube and mix thoroughly. • Pipet the generated lysate onto the spin column placed in a new 2 ml tube. Centrifuge for 30 sec between 8,000 and 10,000 g. • Place the spin column containing the now bound RNA, in a new 2 ml tube. Add 700 μl of low stringency wash solution to the spin column. Centrifuge for 30 sec between 8,000 and 10,000 g. Discard the flow through and replace spin column. • Add 80 μl of DNase I dilution to the spin column and incubate at room temperature for 15 minutes. • Add 700 μl of high stringency wash solution to the column and centrifuge for 30 sec between 8,000 and 10,000 g. Discard flow through. • Add 700 μl of low stringency wash solution to the column and centrifuge for 60 sec between 8,000 and 10,000 g. Discard flow through. • Centrifuge for 2 minutes to remove residual wash solution. • Transfer spin column to new 1.5 ml collection tube and add 80 μl of elution solution to the column. Allow 1 minute for saturation of the membrane and then centrifuge for 2 minutes to complete the RNA elution. • Quantify the quantity of RNA and store at −20 C° until use (no more than 1 month)
(§6) The genes tested were: • Cannabinoid receptor 1 (CB1(CNR1)) • Cannabinoid receptor 2 (CB2 (CNR2)) • Fatty acid amide hydrolase (FAAH) • Monoacylglycerol lipase (MGLL, i.e., MAGL) • Peroxisome proliferator-activated receptor gamma (PPARG) • Nuclear factor kappa-light-chain-enhancer of activated B cells (NFκβ) • Interleukin 1 Alpha (IL1alpha) • Cyclooxygenase 1 (PTGS1, i.e., COX1) • Transient receptor potential cation channel subfamily A member 1 (TRPA1) • Transient receptor potential cation channel subfamily V member 1 (TRPV1) • Transient receptor potential cation channel subfamily M member 8 (TRPM8) • Hemoglobin Subunit Beta (HBB) REFERENCE GENE • Ribosomal Protein L13a (RPL13A) REFERENCE GENE […]

[2] = system: IL1A; experiment: Gene expression custom microarray, human skin fibroblasts (Example 1): IL1A; details: 10 uM, 24 hr
Description: as §1, §2, §3, §4, §5, §6

[3] = system: PPARG; experiment: Gene expression custom microarray, human skin fibroblasts (Example 1): PPARG; details: human skin fibroblasts, 10 uM, 24 hr
Description: as §1, §2
(§7) It is at this stage that all wells were rinsed in PBS after aspirating the growth media. The compound(s) to be tested were previously mixed into a suitable solvent (e.g., DMSO or ethanol) that can be diluted to the desired concentration of test compound (10 μl) in the culture wells without exceeding maximum solvent concentrations and adversely effecting cell viability, and mixed with basal media. NOTE: Standard maximum levels of solvent are 0.1% for DMSO and 0.5% for ETOH.
as §4, §5
(§8) The genes tested were: • Cannabinoid receptor 1 (CB1(CNR1)) • Cannabinoid receptor 2 (CB2 (CNR2)) • Fatty acid amide hydrolase (FAAH) • Monoacylglycerol lipase (MGLL, i.e., MAGL) • Peroxisome proliferator-activated receptor gamma (PPARG) • Nuclear factor kappa-light-chain-enhancer of activated B cells (NFκβ) • Interleukin 1 Alpha (IL1alpha) • Cyclooxygenase 1 (PTGS1, i.e., COX1) • Transient receptor potential cation channel subfamily A member 1 (TRPA1) • Transient receptor potential cation channel subfamily V member 1 (TRPV1) • Transient receptor potential cation channel subfamily M member 8 (TRPM8) • Hemoglobin Subunit Beta (HBB) REFERENCE GENE • Ribosomal Protein L13a (RPL13A) REFERENCE GENE

[4] = system: CNR1; experiment: Gene expression custom microarray, human skin fibroblasts (Example 1): CNR1; details: human skin fibroblasts, 10 uM, 24 hr
Description: as §1, §2, §3, §4, §5, §6

[5] = system: CNR2; experiment: Gene expression custom microarray, human skin fibroblasts (Example 1): CNR2; details: human skin fibroblasts, 10 uM, 24 hr
Description: as §1, §2, §3, §4, §5, §6

[6] = system: MAGL; experiment: Gene expression custom microarray, human skin fibroblasts (Example 1): MAGL; details: human skin fibroblasts, 10 uM, 24 hr
Description: as §1, §2, §3, §4, §5, §6

[7] = system: FAAH; experiment: Gene expression custom microarray, human skin fibroblasts (Example 1): FAAH; details: human skin fibroblasts, 10 uM, 24 hr
Description: as §1, §2, §3, §4, §5, §6

[8] = system: NFKB1; experiment: Gene expression custom microarray, human skin fibroblasts (Example 1): NFKB1; details: human skin fibroblasts, 10 uM, 24 hr
Description: as §1, §2, §7, §4, §5, §8

[9] = system: TRPV1; experiment: Gene expression custom microarray, human skin fibroblasts (Example 1): TRPV1; details: 10 uM, 24 hr
Description: as §1, §2, §3, §4
At the end of the 24 hr time period, the plates were removed from the incubator, the test media aspirated, and the cells rinsed with PBS. RNA isolation is performed using the BioRad Aurum Total RNA Mini Kit (Hercules, Calif.) per manufacturer's protocol; which is described, in brief, below: • Add 350 μl of lysis buffer to each well. Pipet multiple times to ensure thorough lysis. Add lysed cells to the collection tube. • Add 350 μl of 70% ETOH to the collection tube and mix thoroughly. • Pipet the generated lysate onto the spin column placed in a new 2 ml tube. Centrifuge for 30 sec between 8,000 and 10,000 g. • Place the spin column containing the now bound RNA, in a new 2 ml tube. Add 700 μl of low stringency wash solution to the spin column. Centrifuge for 30 sec between 8,000 and 10,000 g. […] Allow 1 minute for saturation of the membrane and then centrifuge for 2 minutes to complete the RNA elution. • Quantify the quantity of RNA and store at −20 C° until use (no more than 1 month) […]

[10] = system: PTGS1; experiment: Gene expression custom microarray, human skin fibroblasts (Example 1): PTGS1; details: human skin fibroblasts, 10 uM, 24 hr
Description: as §1, §2, §3, §4, §5, §6

[11] = system: TRPA1; experiment: Gene expression custom microarray, human skin fibroblasts (Example 1): TRPA1; details: human skin fibroblasts, 10 uM, 24 hr
Description: as §1, §2, §3, §4, §5, §6

C=C1CC/C=C(\C)CC[C@@H]2[C@@H]1CC2(C)C [B-Caryphyllene, B-Caryophyllene]
TRPM8↑ gene expression, fold increase or decrease vs untreated cells [1]: 5.5 fold | IL1A↓ gene expression, fold increase or decrease vs untreated cells [2]: 0 fold | PPARG↑ gene expression, fold increase or decrease vs untreated cells [3]: −1.6 fold | CNR1↑ gene expression, fold increase or decrease vs untreated cells [4]: 0 fold | CNR2↑ gene expression, fold increase or decrease vs untreated cells [5]: 0 fold | MAGL↓ gene expression, fold increase or decrease vs untreated cells [6]: 1 fold | FAAH↓ gene expression, fold increase or decrease vs untreated cells [7]: −1.6 fold | NFKB1↓ gene expression, fold increase or decrease vs untreated cells [8]: −1.3 fold | TRPV1↑ gene expression, fold increase or decrease vs untreated cells [9]: 2 fold | PTGS1↓ gene expression, fold increase or decrease vs untreated cells [10]: −1.5 fold | TRPA1↑ gene expression, fold increase or decrease vs untreated cells [11]: 0 fold
